From patent publication US10046014B2, “Useful active agent for preventing and/or treating dandruff conditions of the scalp” (L'OREAL, priority 2011, dated 2018)

Key:
Malassezia globosa = assay: Antifungal inhibition test on agar (Malassezia suspension, growth scored against control); format: cell-based; set-up: key to inhibition score (density of the culture at the surface of the agar vs growth control): 3: No growth; 2: Growth < in the control dish; 1: Growth < in the control dish; 0: Growth comparable to the control dish; details: positive reference 1% zinc pyrithione
Description: (§1) The test product is brought into contact with the Malassezia suspension. The mixture is deposited at the surface of agar medium. It is spread and the excess is recovered before incubation. It is incubated for at least 5 days at 30° C.
(§2) The products are placed in solution in liquid modified Leeming and Notman medium (LNm) and the tests are carried out in duplicate. The complete culture is at 7.5 g/l or 150 g/l (concentrated version) on a dry matter basis.
(§3) The complete culture was tested at 10% (for the concentration at 7.5 g/l) and at 1% (for the concentration at 150 g/l).
(§4) The positive reference is 1% zinc pyrithione.
(§5) The solutions of the products are twice as concentrated in order to take into account the dilution to ½ during the bringing into contact with the Malassezia suspension.
(§6) The Malassezia globosa and restricta strains were received on agar slopes and were subcultured and incubated at 30° C. until the tests.
(§7) The suspensions are prepared in 15 ml of a buffered solution (ref AEB611294, AES).
(§8) The density of the suspensions is taken at 550 nm.
(§9) The antifungal effect of the reference product is evaluated via the absence of growth of the Malassezia strain tested. This inhibition is evaluated relative to the growth control.
(§10) The inhibitions are scored from 3 to 0 via assessment of the density of the culture at the surface of the agar, in comparison with the growth control for the strain.

Malassezia restricta = assay: as above; format: cell-based; set-up: key to inhibition score (density of the culture at the surface of the agar vs growth control): 3: No growth; 2: Growth < in the control dish; 1: Growth < in the control dish; 0: Growth comparable to the control dish; details: positive reference 1% zinc pyrithione
Description: as §1, §2, §3, §4, §5, §6, §7, §8, §9, §10

Zinc pyrithione
inhibition in words (Malassezia globosa): Total inhibition
inhibition score (density of the culture at the surface of the agar vs growth control) (Malassezia globosa; at least 5 days at 30° C.): 3
inhibition in words (Malassezia restricta): Total inhibition
inhibition score (density of the culture at the surface of the agar vs growth control) (Malassezia restricta; at least 5 days at 30° C.): 3
